Laboratory results from patent US20240166649A1, “DIHYDROPYRIMIDINE COMPOUND, PREPARATION METHOD THEREFOR AND APPLICATION THEREOF” (Shanghai Visonpharma Co., Ltd., priority 2021, published 2024).

Tests used:
[1] = Cytotoxicity assay (CellTiter Glo); assay type: cell-based; conditions: human; HepG2.2.15 cells, five days post treatment
Procedure: The Invention Determined Cytotoxicity of the Compounds Against HepG2.2.15 Cells (Table 2)
HepG2.2.15 cells were seeded into 96-well plates (8000 cells per well) and cell viability was measured by the addition of 60 μL of CellTiter Glo reagent (Promega) five days post treatment with the compounds. Cell plates with CellTiter Glo added were shaken on a plate shaker for 20 min and then the chemiluminescence signal was stabilized at room temperature for 10 min. Chemiluminescence values were read using a microplate reader (Bio-TeK SYNERGY NEO2).
The concentration corresponding to 50% cytotoxicity (CC50) was fitted by graphpad prism software. The cytotoxicity was calculated by the formula: % Cytotoxicity=100−(chemiluminescence value of sample Well −average chemiluminescence value of blank medium column)/(average chemiluminescence value of DMSO column −average chemiluminescence value of blank medium column)*100

[2] = tested on: HBV (hepatitis B virus) in HepG2.2.15 cells; test: Cell-based anti-viral activity assay (HBV DNA in supernatant by quantitative PCR); conditions: 120 h, anti-HBV activity, HepG2.2.15 cells, 5 days, read-out: EC50 (HepG2.2.15)
How it was run: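 HepG2.2.15 cells (stably carrying HBV genome) treated with 3.16-fold compound dilutions, final 1% DMSO, for 5 days at 37 °C. Supernatant HBV DNA quantified by qPCR against a standard curve; % inhibition normalised to DMSO and high-concentration reference compound wells.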

Structure (SMILES): CCOC(=O)C1=C(CN2CCN3C(=O)N(C45CC(CO)(C4)C5)C[C@@H]3[C@H]2C(=O)O)NC(c2nccs2)=N[C@H]1c1cccc(F)c1C [Compound 33, (8S,8aR)-7-(((S)-5-(Ethoxycarbonyl)-6-(3-Fluoro-2-Methylphenyl)-2-(Thiazol-2-Yl)-3,6-Dihydropyrimidin-4-Yl)Methyl)-2-(3-(Hydroxymethyl)Bicyclo[1.1.1]Pentan-1-Yl)-3-Oxooctahydroimidazo[1,5-a]Pyrazine-8-Carboxylic Acid]
- CC50 at 5 days [1]: > 50000 nM
- EC50 [2]: 202 nM

Structure (SMILES): CCOC(=O)C1=C(CN2CCN3C(=O)N(C45CCC(C(=O)O)(CC4)C5)C[C@@H]3C2)NC(c2nccs2)=N[C@H]1c1ccc(F)cc1Cl [Compound 60, 4-((S)-7-(((R)-6-(2-Chloro-4-Fluorophenyl)-5-(Ethoxycarbonyl)-2-(Thiazol-2-Yl)-3,6-Dihydropyrimidin-4-Yl)Methyl)-3-Oxohexahydroimidazo[1,5-a]Pyrazin-2(3H)-Yl)Bicyclo[2.2.1]Heptane-1-Carboxylic Acid]
- CC50 at 5 days [1]: > 50000 nM
- EC50 [2]: 9 nM

Structure (SMILES): CCOC(=O)CC12CC(N3C[C@@H]4[C@@H](COC)N(CC5=C(C(=O)OCC)[C@H](c6cccc(F)c6C)N=C(c6nccs6)N5)CCN4C3=O)(C1)C2 [Compound 44, Ethyl (S)-6-(((8S,8aR)-2-(3-(2-Ethoxy-2-Oxoethyl)Bicyclo[1.1.1]Pentan-1-Yl)-8-(Methoxymethyl)-3-Oxohexahydroimidazo[1,5-a]Pyrazin-7(1H)-Yl)Methyl)-4-(3-Fluoro-2-Methylphenyl)-2-(Thiazol-2-Yl)-1,4-Dihydropyrimidine-5-Carboxylate]
- CC50 at 5 days [1]: > 50000 nM
- EC50 [2]: 183 nM

Structure (SMILES): CCOC(=O)C1=C(CN2CCN3C(=O)N(C45CC(CC(=O)O)(C4)C5)C[C@@H]3C2)NC(c2nccs2)=N[C@H]1c1ccc(F)cc1Cl [Compound 35]
- CC50 at 5 days [1]: > 50000 nM
- EC50 [2]: 28 nM

Structure (SMILES): CCOC(=O)C1=C(CN2CCN3C(=O)N(C45C6C7C4C4C5C6C74C(=O)O)C[C@@H]3C2)NC(c2nccs2)=N[C@H]1c1cccc(F)c1C (stereo partly drawn) [Compound 61]
- CC50 at 5 days [1]: > 50000 nM
- EC50 [2]: 17 nM

Structure (SMILES): CCOC(=O)C1=C(CN2CCN3C(=O)N(C45CC(COC)(C4)C5)C[C@@H]3[C@H]2C(=O)O)NC(c2nccs2)=N[C@H]1c1cccc(F)c1C [Compound 47, (8S,8aR)-7-(((S)-5-(Ethoxycarbonyl)-6-(3-Fluoro-2-Methylphenyl)-2-(Thiazol-2-Yl)-3,6-Dihydropyrimidin-4-Yl)Methyl)-2-(3-(Methoxymethyl)Bicyclo[1.1.1]Pentan-1-Yl)-3-Oxooctahydroimidazo[1,5-a]Pyrazine-8-Carboxylic Acid]
- CC50 at 5 days [1]: > 50000 nM
- EC50 [2]: 18 nM

Structure (SMILES): CCOC(=O)C1=C(CN2CCN3C(=O)N(C45CC(CC(=O)O)(C4)C5)C[C@@H]3C2)NC(c2nccs2)=N[C@H]1c1ccc(F)cc1C [Compound 37]
- CC50 at 5 days [1]: > 50000 nM
- EC50 [2]: 18 nM

Structure (SMILES): CCOC(=O)C1=C(CN2CCN3C(=O)N(C45CCC(C(=O)O)(CC4)CC5)C[C@@H]3C2)NC(c2nccs2)=N[C@H]1c1ccc(F)cc1Cl [Compound 55, 4-((S)-7-(((R)-6-(2-Chloro-4-Fluorophenyl)-5-(Ethoxycarbonyl)-2-(Thiazol-2-Yl)-3,6-Dihydropyrimidin-4-Yl)Methyl)-3-Oxohexahydroimidazo[1,5-a]Pyrazin-2(3H)-Yl)Bicyclo[2.2.2]Octane-1-Carboxylic Acid]
- CC50 at 5 days [1]: > 50000 nM
- EC50 [2]: 2 nM

Structure (SMILES): CCOC(=O)C1=C(CN2CCN3C(=O)N(C45CC(C(=O)NS(C)(=O)=O)(C4)C5)C[C@@H]3C2)NC(c2nccs2)=N[C@H]1c1cccc(F)c1C [Compound 28, Ethyl (S)-4-(3-Fluoro-2-Methylphenyl)-6-(((S)-2-(3-((Methylsulfonyl)Carbamoyl)Bicyclo[1.1.1]Pentan-1-Yl)-3-Oxohexahydroimidazo[1,5-a]Pyrazin-7(1H)-Yl)Methyl)-2-(Thiazol-2-Yl)-1,4-Dihydropyrimidine-5-Carboxylate]
- CC50 at 5 days [1]: > 50000 nM
- EC50 [2]: 21 nM

Structure (SMILES): CCOC(=O)C1=C(CN2CCN3C(=O)N(C45CCC(C(=O)O)(CC4)CC5)C[C@@H]3C2)NC(c2nccs2)=N[C@H]1c1cccc(F)c1C [Compound 52, 4-((S)-7-(((S)-5-(Ethoxycarbonyl)-6-(3-Fluoro-2-Methylphenyl)-2-(Thiazol-2-Yl)-3,6-Dihydropyrimidin-4-Yl)Methyl)-3-Oxohexahydroimidazo[1,5-a]Pyrazin-2(3H)-Yl)Bicyclo[2.2.2]Octane-1-Carboxylic Acid]
- CC50 at 5 days [1]: > 50000 nM
- EC50 [2]: 3 nM

Structure (SMILES): CCOC(=O)C1=C(CN2CCN3C(=O)N(C45CCC(C(=O)O)(C4)C5)C[C@@H]3C2)NC(c2nccs2)=N[C@H]1c1ccc(F)cc1Cl [Compound 57, 4-((S)-7-(((R)-6-(2-Chloro-4-Fluorophenyl)-5-(Ethoxycarbonyl)-2-(Thiazol-2-Yl)-3,6-Dihydropyrimidin-4-Yl)Methyl)-3-Oxohexahydroimidazo[1,5-a]Pyrazin-2(3H)-Yl)Bicyclo[2.1.1]Hexane-1-Carboxylic Acid]
- CC50 at 5 days [1]: > 50000 nM
- EC50 [2]: 12 nM

Structure (SMILES): CCOC(=O)C1=C(CN2CCN3C(=O)N(C45CCC(C(=O)O)(CC4)CC5)C[C@@H]3C2)NC(c2nccs2)=N[C@H]1c1ccc(F)cc1C [Compound 53, 4-((S)-7-(((S)-5-(Ethoxycarbonyl)-6-(4-Fluoro-2-Methylphenyl)-2-(Thiazol-2-Yl)-3,6-Dihydropyrimidin-4-Yl)Methyl)-3-Oxohexahydroimidazo[1,5-a]Pyrazin-2(3H)-Yl)Bicyclo[2.2.2]Octane-1-Carboxylic Acid]
- CC50 at 5 days [1]: > 50000 nM
- EC50 [2]: 9 nM

Structure (SMILES): COC(=O)C1=C(CN2CCN3C(=O)N(C45CC(CC(=O)O)(C4)C5)C[C@@H]3C2)NC(c2nccs2)=N[C@H]1c1ccc(F)cc1Cl [Compound 38, 2-(3-((S)-7-(((R)-6-(2-Chloro-4-Fluorophenyl)-5-(Methoxycarbonyl)-2-(Thiazol-2-Yl)-3,6-Dihydropyrimidin-4-Yl)Methyl)-3-Oxohexahydroimidazo[1,5-a]Pyrazin-2 (3H)-Yl)Bicyclo[1.1.1]Pentane-1-Yl)Acetic Acid]
- CC50 at 5 days [1]: > 50000 nM
- EC50 [2]: 43 nM

Structure (SMILES): CCOC(=O)C1=C(CN2CCN3C(=O)N(C45CC(C#N)(C4)C5)C[C@@H]3C2)NC(c2nccs2)=N[C@H]1c1cccc(F)c1C [Compound 17, Ethyl (S)-6-(((S)-2-(3-Cyanobicyclo[1.1.1]Pentan-1-Yl)-3-Oxohexahydroimidazo[1,5-a]Pyrazin-7(1H)-Yl) Methyl)-4-(3-Fluoro-2-Methylphenyl)-2-(Thiazol-2-Yl)-1,4-Dihydropyrimidine-5-Carboxylate]
- CC50 at 5 days [1]: > 50000 nM
- EC50 [2]: 5 nM

Structure (SMILES): CCOC(=O)C1=C(CN2CCN3C(=O)N(C45CC(NS(=O)(=O)C6CC6)(C4)C5)C[C@@H]3C2)NC(c2nccs2)=N[C@H]1c1cccc(F)c1C [Compound 29, Ethyl (S)-6-(((S)-2-(3-(Cyclopropanesulfonamido)Bicyclo[1.1.1]Pentan-1-Yl)-3-Oxohexahydroimidazo[1,5-a]Pyrazin-7(1H)-Yl)Methyl)-4-(3-Fluoro-2-Methylphenyl)-2-(Thiazol-2-Yl)-1,4-Dihydropyrimidine-5-Carboxylate]
- CC50 at 5 days [1]: > 50000 nM
- EC50 [2]: 6 nM
